Patent publication US10738018B2, “Compounds for therapeutic use” (Dart NeuroScience, LLC, priority 2016, dated 2020)

How the values were obtained:
mice = details: cited from earlier work
[1] = Conversion of Formula (I) compounds to HNK upon administration to a subject; format: in vivo; details: possible two-step process: hydrolysis under acid conditions, then enzymatic conversion by esterase action
From the text: In this prophetic example, exemplary compounds of Formula (I) yield HNK upon administration to a subject, such as a patient in a clinical trial, in one or more steps. For example, in one possible pathway illustrated in the following schematic, exemplary compounds of Formula (I) may yield HNK in a two-step process, consisting of hydrolysis in Step 1 under acid conditions, such as those in the stomach, and subsequent enzymatic conversion by esterase action.

SMILES | antidepressant activity (mice) | conversion to HNK upon administration [1]
N[C@@]1(c2ccccc2Cl)CCC[C@@H](O)C1=O [(2R,6R)-hydroxynorketamine] | has antidepressant activity | 
CC(O)C1=N[C@@]2(c3ccccc3Cl)CCC[C@@H](O1)C2=O (stereo partly drawn) [Example 2, (1R,5R)-5-(2-chlorophenyl)-3-(1-hydroxyethyl)-2-oxa-4 azabicyclo[3.3.1]non-3-en-9-one] |  | may give rise to HNK and lactic acid
